Data on two compounds can be found in patent publication US6113941A, “Substained release microcapsule of physiologically active compound which is slightly water soluble at pH 6 to 8” (Takeda Chemical Industries, Ltd., priority 1994, dated 2000).

SMILES strings stand for the structures.

A short description of data set [1]: Oral administration to rats, plasma concentration and absorption ratio (Example 1, Table 1). Format: in vivo. As to conditions: rat, SD-strain male rats, 20 mg/kg, suspended in 0.5% methylcellulose. The method, then: The antiulcer drug 2-[[[3-methyl-4-(2,2,3,3,-tetrafluoropropoxy)-2-pyridyl]methyl]thio]benzimidazole (hereinafter sometimes referred to as Compound A) (400 mg) and lactic acid/glycollic acid copolymer (lactic acid/glycollic acid=50/50, average molecular weight calculated as polystyrene=5400) (3.6 g) were dissolved in dichloromethane (5 ml) to prepare an o/w type emulsion using a homogenizer in an aqueous solution (800 ml) of 0.1% polyvinyl alcohol (PVA). Then, the emulsion was slowly stirred with a conventional propeller stirrer. After dichloromethane vaporized and the microcapsules hardened, the microcapsules were collected by centrifugation and at the same time washed with purified water. The collected microcapsules were freeze-dried for a day to obtain powdery microcapsules.
The drug content in the total amount of the microcapsules was 10.0%, and the entrapment was 100%. The microcapsules were suspended in 0.5% methylcellulose, and orally administered to SD-strain male rats (body weight: 250 g) in a dose of 20 mg/kg. A suspension of the drug alone in 0.5% methylcellulose was also administered for comparison. In both cases, the plasma concentration of the drug and the absorption ratio were determined.

The nature of data set [2]: Oral administration to rats, plasma concentration and absorption ratio (Example 2, Table 2). Format: in vivo, SD-strain male rats. As to conditions: rat, 20 mg/kg. The method, then: From this emulsion, a w/o/w type emulsion was prepared using a homogenizer in 0.5% PVA aqueous solution (1000 ml). Then, the emulsion was slowly stirred with a conventional propeller stirrer for 3 hours. After dichloromethane vaporized while w/o type microcapsules hardened, the microcapsules were centrifuged and collected and at the same time washed with purified water. The collected microcapsules were freeze-dried for a day to obtain powdery microcapsules.
The microcapsules were suspended in 0.5% methylcellulose, and orally administered to SD-strain male rats (body weight: 250 g) in a dose of 20 mg/kg. For comparative purposes, a suspension of the drug alone in 0.5% methylcellulose was also administered. In both cases, the plasma concentration of the drug and the absorption ratio were determined.

Data set [3] can be described thus: Solubility of Compound A at the pH in the small intestine (stated in words). It is filed as physicochemical.
For data set [4] the following is noted: pH no higher than 3; cited from earlier work.

Take `Cc1c(OCC(F)(F)C(F)F)ccnc1CSc1nc2ccccc2[nH]1` [Compound A, 2-[[[3-methyl-4-(2,2,3,3,-tetrafluoropropoxy)-2-pyridyl]methyl]thio]benzimidazole]: the Fa in data set [1] (in vivo) and in data set [2] (in vivo) was 5.4% in each case. For the same compound, the Cmax (usually the highest concentration seen after dosing) in data set [1] (plasma, read-out: Cmax (peak blood level)) is 218 ng/mL; in data set [2] (plasma), 218 ng/mL. The time of peak concentration (Tmax) – broadly, the time from dosing to the highest level – was 15 min in data set [1] (plasma, read-out: Tmax (time required to obtain the peak blood level)) and 15 min in data set [2] (plasma). In addition, the solubility entry in data set [3] is reported as “very low solubility”.

`COc1ccc2c(c1)c(CC(=O)O)c(C)n2C(=O)c1ccc(Cl)cc1` [indomethacin]: the solubility in water entry in data set [4] is “not readily soluble”.
